Test results published in PMC3914206.

Columns and labels:
panel of 442 kinases [1] = biological target: T1, panel of 442 kinases (Homo sapiens, UniProt P54762); type: binding; conditions: Compound Concentration 10 µM
T1 construct: purchased KINOMEscan
T1 sequence (P54762 18-984): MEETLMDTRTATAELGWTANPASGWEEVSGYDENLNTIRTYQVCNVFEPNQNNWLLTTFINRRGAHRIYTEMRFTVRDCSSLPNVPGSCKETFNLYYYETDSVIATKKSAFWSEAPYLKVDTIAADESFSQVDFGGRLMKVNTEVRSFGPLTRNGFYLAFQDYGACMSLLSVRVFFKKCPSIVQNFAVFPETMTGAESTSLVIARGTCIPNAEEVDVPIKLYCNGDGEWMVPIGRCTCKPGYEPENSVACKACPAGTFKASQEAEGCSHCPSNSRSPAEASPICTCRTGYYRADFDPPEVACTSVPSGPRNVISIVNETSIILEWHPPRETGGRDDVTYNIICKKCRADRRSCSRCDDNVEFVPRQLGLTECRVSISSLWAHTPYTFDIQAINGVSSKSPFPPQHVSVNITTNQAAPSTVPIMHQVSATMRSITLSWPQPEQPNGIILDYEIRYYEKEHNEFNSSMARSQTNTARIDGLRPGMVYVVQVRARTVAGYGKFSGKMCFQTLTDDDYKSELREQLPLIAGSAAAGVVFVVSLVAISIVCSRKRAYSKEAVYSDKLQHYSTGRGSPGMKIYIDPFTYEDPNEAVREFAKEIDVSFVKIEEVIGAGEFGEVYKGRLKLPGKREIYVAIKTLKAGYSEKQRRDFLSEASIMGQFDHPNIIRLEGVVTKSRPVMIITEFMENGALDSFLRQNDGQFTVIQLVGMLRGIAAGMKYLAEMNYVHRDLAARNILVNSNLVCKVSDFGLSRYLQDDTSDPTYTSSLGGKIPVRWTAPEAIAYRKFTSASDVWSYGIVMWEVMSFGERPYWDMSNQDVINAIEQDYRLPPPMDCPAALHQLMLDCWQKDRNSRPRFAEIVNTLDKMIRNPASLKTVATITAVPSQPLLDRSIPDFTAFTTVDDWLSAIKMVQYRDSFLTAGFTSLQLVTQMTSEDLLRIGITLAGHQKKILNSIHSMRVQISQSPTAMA
Source text: (§1) We assessed the selectivity of members of this scaffold using the KINOMEscan methodology across a near comprehensive panel of 442 kinases [[18,27]].

panel of 442 kinases [2] = biological target: T2, panel of 442 kinases (Homo sapiens, UniProt Q9NRH2); type: binding; conditions: kinase SNRK; compound concentration 10 µM
T2 construct: purchased KINOMEscan
T2 sequence (Q9NRH2 1-765): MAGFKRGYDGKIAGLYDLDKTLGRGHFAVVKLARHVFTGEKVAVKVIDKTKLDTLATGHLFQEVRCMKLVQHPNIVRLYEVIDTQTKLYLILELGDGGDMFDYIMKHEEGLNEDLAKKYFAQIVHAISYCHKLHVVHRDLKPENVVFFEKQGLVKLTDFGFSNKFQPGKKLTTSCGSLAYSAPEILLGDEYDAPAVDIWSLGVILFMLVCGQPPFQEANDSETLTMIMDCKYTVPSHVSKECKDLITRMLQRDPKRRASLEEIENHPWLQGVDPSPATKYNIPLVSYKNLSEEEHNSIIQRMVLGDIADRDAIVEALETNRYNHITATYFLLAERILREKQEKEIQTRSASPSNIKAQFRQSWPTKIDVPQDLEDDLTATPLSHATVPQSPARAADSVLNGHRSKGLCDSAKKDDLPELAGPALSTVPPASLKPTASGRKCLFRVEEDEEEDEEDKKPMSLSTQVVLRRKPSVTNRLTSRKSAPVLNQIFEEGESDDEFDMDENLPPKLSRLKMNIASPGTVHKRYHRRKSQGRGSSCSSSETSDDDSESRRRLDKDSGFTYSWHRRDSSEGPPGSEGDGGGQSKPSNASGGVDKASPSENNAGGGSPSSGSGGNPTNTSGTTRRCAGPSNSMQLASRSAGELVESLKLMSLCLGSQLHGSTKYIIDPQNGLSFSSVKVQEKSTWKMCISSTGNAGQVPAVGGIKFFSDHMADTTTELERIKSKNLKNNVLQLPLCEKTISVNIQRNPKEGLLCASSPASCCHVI
Source text: as §1

## CCOc1cc(C(=O)N2CCC(N3CCN(C)CC3)CC2)ccc1Nc1ncc2c(n1)N(C1CCCC1)c1ccccc1C(=O)N2C [Compound 26]
Panel of 442 kinases [1]
  KINOMEscan: EPHB1: 95
Panel of 442 kinases [2]
  % Ctrl, SNRK: 52 % Ctrl

## COc1cc(C(=O)N2CCC(N3CCN(C)CC3)CC2)ccc1Nc1ncc2c(n1)N(C1CCCC1)c1ccccc1C(=O)N2C [Compound 25, 11-cyclopentyl-2-((2-methoxy-4-(4-(4-methylpiperazin-1-yl)piperidine-1-carbonyl)phenyl)amino)-5-methyl-5H-benzo[e]pyrimido[5,4-b][1,4]diazepin-6(11H)-one]
Panel of 442 kinases [1]
  KINOMEscan: EPHB1: 95
Panel of 442 kinases [2]
  % Ctrl, SNRK: 72 % Ctrl

## COc1cc(C(=O)N2CCC(N3CCN(C)CC3)CC2)ccc1Nc1ncc2c(n1)N(C)c1ccccc1C(=O)N2C [15 (LRRK2-IN-1)]
Panel of 442 kinases [1]
  KINOMEscan: EPHB1: 98
Panel of 442 kinases [2]
  % Ctrl, SNRK: 94 % Ctrl
